Experiment [1] deals with human SOS1 (loading of human K-Ras^G12C-GDP with fluorescent GTP-analog) (Homo sapiens, UniProt Q07889). Briefly: Biochemical assay 3: K-Ras^G12C activation assay by hSOS1 (HTRF). Particulars: no GTP; for IC50: read-out: Assay 3 (KRAS-Activation by SOS no GTP) activity expressed as IC50; for inhibition at 20 µM: read-out: Assay 3 (KRAS-Activation by SOS no GTP) activity expressed as % inhibition at 20 μM.

The target of experiment [2] is Epidermal Growth Factor Receptor (EGFR) (Homo sapiens (Human), UniProt P00533). Briefly: EGFR kinase assay (TR-FRET). In kind it is biochemical. Conditions: read-out: EGFR kinase inhibition IC50. An outline of the steps: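 Read-out is the 665/620 nm HTRF ratio, from a Tb-cryptate anti-phosphotyrosine antibody and streptavidin-XL665 bound to phosphorylated biotin-peptide substrate. The enzyme, A431-derived EGFR (~3 U/ml), was given 15 min compound pre-binding at 22° C in Hepes pH 7.0 with Mg2+/Mn2+ before reaction.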
Chain of Epidermal Growth Factor Receptor (EGFR) (P00533 25-1210): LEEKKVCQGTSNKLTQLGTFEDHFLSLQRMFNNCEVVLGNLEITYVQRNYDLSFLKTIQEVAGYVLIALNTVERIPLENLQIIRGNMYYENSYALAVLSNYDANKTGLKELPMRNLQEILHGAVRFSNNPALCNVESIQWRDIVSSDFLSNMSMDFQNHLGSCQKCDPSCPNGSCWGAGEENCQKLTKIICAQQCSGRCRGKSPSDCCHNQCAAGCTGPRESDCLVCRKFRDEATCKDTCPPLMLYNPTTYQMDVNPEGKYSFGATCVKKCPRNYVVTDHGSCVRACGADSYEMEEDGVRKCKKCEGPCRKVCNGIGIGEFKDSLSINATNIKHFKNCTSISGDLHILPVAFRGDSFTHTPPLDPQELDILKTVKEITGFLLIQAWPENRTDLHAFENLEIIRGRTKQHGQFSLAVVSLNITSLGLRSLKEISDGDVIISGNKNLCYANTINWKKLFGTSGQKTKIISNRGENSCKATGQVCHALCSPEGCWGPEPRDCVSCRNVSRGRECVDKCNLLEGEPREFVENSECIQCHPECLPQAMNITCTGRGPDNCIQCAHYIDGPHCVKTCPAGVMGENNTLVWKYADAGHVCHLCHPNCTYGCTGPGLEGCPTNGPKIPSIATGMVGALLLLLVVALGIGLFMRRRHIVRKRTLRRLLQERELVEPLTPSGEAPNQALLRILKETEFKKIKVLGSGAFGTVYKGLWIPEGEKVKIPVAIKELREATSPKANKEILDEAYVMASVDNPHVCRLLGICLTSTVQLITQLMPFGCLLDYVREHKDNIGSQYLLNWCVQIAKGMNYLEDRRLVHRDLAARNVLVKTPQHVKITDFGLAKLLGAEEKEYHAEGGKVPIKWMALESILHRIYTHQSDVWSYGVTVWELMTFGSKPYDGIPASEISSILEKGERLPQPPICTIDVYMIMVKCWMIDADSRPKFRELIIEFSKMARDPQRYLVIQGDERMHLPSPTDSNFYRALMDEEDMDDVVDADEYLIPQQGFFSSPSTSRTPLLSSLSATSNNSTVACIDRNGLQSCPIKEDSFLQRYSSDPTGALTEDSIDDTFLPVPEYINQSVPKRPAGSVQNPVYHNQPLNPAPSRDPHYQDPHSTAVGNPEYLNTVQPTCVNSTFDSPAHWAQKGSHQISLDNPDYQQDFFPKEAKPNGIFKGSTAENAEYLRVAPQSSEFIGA
(In general: TR-FRET usually uses a lanthanide donor and a delayed reading to cut background.)

Results on 31 compounds are retold here after patent US20240083857A1, “2-Methyl-Quinazolines” (Bayer Pharma Aktiengesellschaft, priority 2017, published 2024).

Read-outs that look alike come from different tables or passages of the source. Bounds are passed on as bounds.

`C=Cc1ccccc1-c1ccc(C(C)Nc2nc(C)nc3cc(OC)c(OC)cc23)s1` (centres unmarked) [Example 248, N-{1-[5-(2-ethenylphenyl)thiophen-2-yl]ethyl}-6,7-dimethoxy-2-methylquinazolin-4-amine]: the IC50 in experiment [1] is 8.43 µM; in experiment [2] (values given in μM), above 20 µM.

`C=C(C)c1ccc([C@@H](C)Nc2nc(C)nc3cc(OC)c(OC)cc23)cc1` [Example 203, 6,7-dimethoxy-2-methyl-N-{(1R)-1-[4-(prop-1-en-2-yl)phenyl]ethyl}quinazolin-4-amine]: the results for the IC50 in experiment [1] and in experiment [2] (values given in μM) were 3.36 µM and above 20 µM, respectively.

For the compound `COc1cc2nc(C)nc(NC(C)c3ccc(-c4ccccc4CN4CCC(O)C4)s3)c2cc1OC` (centres unmarked) [Example 210, 1-[2-(5-{1-[(6,7-dimethoxy-2-methylquinazolin-4-yl)amino]ethyl}thiophen-2-yl)benzyl]pyrrolidin-3-ol], the results for the IC50 in experiment [1] and in experiment [2] (values given in μM) were 0.1 µM and above 20 µM, respectively.

Consider `COc1cc2nc(C)nc(N[C@H](C)c3cccc(-c4cnn(CCO)c4)c3)c2cc1OC` [Example 256, 2-[4-(3-{(1R)-1-[(6,7-dimethoxy-2-methylquinazolin-4-yl)amino]ethyl}phenyl)-1H-pyrazol-1-yl]ethanol], for which the IC50 in experiment [1] was 1.35 µM; in experiment [2] (values given in μM), above 20 µM.

As to `COc1cc2nc(C)nc(NC(C)c3ccc(-c4ccccc4C(N)=O)s3)c2cc1OC` (centres unmarked) [Example 240, 2-(5-{1-[(6,7-dimethoxy-2-methylquinazolin-4-yl)amino]ethyl}thiophen-2-yl)benzamide], the figures for the IC50 in experiment [1] and in experiment [2] (values given in μM) were 7.57 µM and above 20 µM, respectively.

For the compound `COc1cc2nc(C)nc(N[C@H](C)c3ccc(F)cc3)c2cc1OC` [Example 12, N-[(1R)-1-(4-fluorophenyl)ethyl]-6,7-dimethoxy-2-methylquinazolin-4-amine], the values for the half-maximal inhibitory concentration (IC50) in experiment [1] and in experiment [2] (values given in μM) were 1.29 µM and above 20 µM, respectively.

As for `COc1cc2nc(C)nc(NC(C)c3ccc(-c4ccccc4CCO)s3)c2cc1OC` (centres unmarked) [Example 180, 2-[2-(5-{1-[(6,7-dimethoxy-2-methylquinazolin-4-yl)amino]ethyl}thiophen-2-yl)phenyl]ethanol], the values for the IC50 in experiment [1] and in experiment [2] (values given in μM) were 0.82 µM and above 20 µM, respectively.

With `COc1cc2nc(C)nc(NC(C)c3ccc(-c4cnc5n4CCC5)s3)c2cc1OC` (centres unmarked) [Example 219, N-{1-[5-(6,7-dihydro-5H-pyrrolo[1,2-a]imidazol-3-yl)thiophen-2-yl]ethyl}-6,7-dimethoxy-2-methylquinazolin-4-amine], the results for the IC50 in experiment [1] and in experiment [2] (values given in μM) were 0.908 µM and above 20 µM, respectively.

For `COc1cc2nc(C)nc(NC(C)c3cccc4cn(C)nc34)c2cc1OC` (centres unmarked) [Example 8, 6,7-dimethoxy-2-methyl-N-[1-(2-methyl-2H-indazol-7-yl)ethyl]quinazolin-4-amine], the inhibition at 20 µM in experiment [1] is 14%. The IC50 in experiment [2] (values given in μM) is above 20 µM.

On to `COc1cc2nc(C)nc(N[C@H](C)c3cccc(Cl)c3)c2cc1OC` [Example 2, N-[(1R)-1-(3-chlorophenyl)ethyl]-6,7-dimethoxy-2-methylquinazolin-4-amine], for which the IC50 in experiment [1] worked out at 0.537 µM; in experiment [2] (unit inferred), 16.3 µM.

`COc1cc2nc(C)nc(NC(C)c3cccc(Oc4ccccc4)c3)c2cc1OC` (centres unmarked) [Example 215, 6,7-dimethoxy-2-methyl-N-[1-(3-phenoxyphenyl)ethyl]quinazolin-4-amine]: the IC50 in experiment [1] stood at 2.95 µM; in experiment [2] (unit inferred), 2.57 µM.

`COc1cc2nc(C)nc(NC(C)c3ccc(-c4ccccc4CN4CCC[C@H]4CN(C)C)s3)c2cc1OC` (stereo partly drawn) [Example 185, N-[1-{5-[2-({(2S)-[(dimethylamino)methyl]pyrrolidin-1-yl}methyl)phenyl]thiophen-2-yl}ethyl]-6,7-dimethoxy-2-methylquinazolin-4-amine]: the IC50 is 0.323 µM in experiment [1] and above 20 µM in experiment [2] (values given in μM).

As to `COc1cc2nc(C)nc(NC(C)c3ccc(-c4ccccc4CN4CC5(COC5)C4)s3)c2cc1OC` (centres unmarked) [Example 182, 6,7-di methoxy-2-methyl-N-[1-{5-[2-(2-oxa-6-azaspiro[3.3]hept-6-ylmethyl)phenyl]thiophen-2-yl}ethyl]quinazolin-4-amine], the half-maximal inhibitory concentration (IC50) in experiment [1] is 0.121 µM; in experiment [2] (values given in μM) it was above 20 µM.

For the compound `COc1cc2nc(C)nc(NC(C)c3cccc4c3CCCC4)c2cc1OC` (centres unmarked) [Example 11, 6,7-dimethoxy-2-methyl-N-[1-(5,6,7,8-tetrahydronaphthalen-1-yl)ethyl]quinazolin-4-amine], the IC50 was 0.54 µM in experiment [1] and above 20 µM in experiment [2] (values given in μM).

Consider `COc1cc2nc(C)nc(NC(C)c3ccc(-c4cccc5cn[nH]c45)s3)c2cc1OC` (centres unmarked) [Example 246, N-{1-[5-(1H-indazol-7-yl)thiophen-2-yl]ethyl}-6,7-dimethoxy-2-methylquinazolin-4-amine], for which the inhibition at 20 µM in experiment [1] came to 44%. Moreover, the IC50 in experiment [2] (values given in μM) is above 20 µM.

Turning to `COc1cc2nc(C)nc(NC(C)c3ccc(-c4ccc(F)cc4CN)s3)c2cc1OC` (centres unmarked) [Example 234, N-[1-{5-[2-(aminomethyl)-4-fluorophenyl]thiophen-2-yl}ethyl]-6,7-dimethoxy-2-methylquinazolin-4-amine], the results for the IC50 in experiment [1] and in experiment [2] (values given in μM) were 0.0921 µM and above 20 µM, respectively.

On to `COc1cc2nc(C)nc(NC(C)c3cccs3)c2cc1OC` (centres unmarked) [Example 207, 6,7-dimethoxy-2-methyl-N-[1-(thiophen-2-yl)ethyl]quinazolin-4-amine], for which the IC50 was 12.3 µM in experiment [1] and above 20 µM in experiment [2] (values given in μM).

As for `COc1cc2nc(C)nc(NC(C)c3ccc(-c4cccc(CCO)c4)s3)c2cc1OC` (centres unmarked) [Example 181, 2-[3-(5-{1-[(6,7-dimethoxy-2-methylquinazolin-4-yl)amino]ethyl}thiophen-2-yl)phenyl]ethanol], the inhibition at 20 µM in experiment [1] stood at 45%. For the same compound, the IC50 in experiment [2] (values given in μM) was above 20 µM.

As for `COc1cc2nc(C)nc(NC(C)c3ccc(-c4cnn(CCO)c4)s3)c2cc1OC` (centres unmarked) [Example 218, 2-[4-(5-{1-[(6,7-dimethoxy-2-methylquinazolin-4-yl)amino]ethyl}thiophen-2-yl)-1H-pyrazol-1-yl]ethanol], the IC50 was 3.78 µM in experiment [1] and above 20 µM in experiment [2] (values given in μM).

`COc1cc2nc(C)nc(N[C@H](C)c3ccc(C4=CCN(C)CC4)cc3)c2cc1OC` [Example 201, 6,7-dimethoxy-2-methyl-N-{(1R)-1-[4-(1-methyl-1,2,3,6-tetrahydropyridin-4-yl)phenyl]ethyl}quinazolin-4-amine]: the inhibition at 20 µM in experiment [1] amounted to 50%. The IC50 in experiment [2] (values given in μM) is above 20 µM.

Turning to `COc1cc2nc(C)nc(NC(C)c3cccc4ccoc34)c2cc1OC` (centres unmarked) [Example 4, N-[1-(1-benzofuran-7-yl)ethyl]-6,7-dimethoxy-2-methylquinazolin-4-amine], the IC50 in experiment [1] was 0.479 µM; in experiment [2] (values given in μM), above 20 µM.

In the case of `COc1cc2nc(C)nc(NC(C)c3ccc(-c4ccc(C(N)=O)cc4)s3)c2cc1OC` (centres unmarked) [Example 242, 4-(5-{1-[(6,7-dimethoxy-2-methylquinazolin-4-yl)amino]ethyl}thiophen-2-yl)benzamide], the values for the IC50 in experiment [1] and in experiment [2] (values given in μM) were 3.01 µM and above 20 µM, respectively.

Take `COc1cc2nc(C)nc(NC(C)c3cc(C)c(Br)s3)c2cc1OC` (centres unmarked) [Example 183, N-[1-(5-bromo-4-methylthiophen-2-yl)ethyl]-6,7-dimethoxy-2-methylquinazolin-4-amine]: the IC50 in experiment [1] was 9.14 µM; in experiment [2] (values given in μM), above 20 µM.

Take `CCOc1ccccc1-c1ccc(C(C)Nc2nc(C)nc3cc(OC)c(OC)cc23)s1` (centres unmarked) [Example 232, N-{1-[5-(2-ethoxyphenyl)thiophen-2-yl]ethyl}-6,7-dimethoxy-2-methylquinazolin-4-amine]: the IC50 in experiment [1] was 4.04 µM; in experiment [2] (values given in μM) it was above 20 µM.

Consider `COc1cc2nc(C)nc(N[C@H](C)c3cccc(S(C)(=O)=O)c3)c2cc1OC` [Example 198, 6,7-dimethoxy-2-methyl-N-{(1R)-1-[3-(methylsulfonyl)phenyl]ethyl}quinazolin-4-amine], for which the IC50 is 1.09 µM in experiment [1] and above 20 µM in experiment [2] (values given in μM).

Consider `COc1cc2nc(C)nc(NC(C)c3cccc4sccc34)c2cc1OC` (centres unmarked) [Example 205, N-[1-(1-benzothiophen-4-yl)ethyl]-6,7-dimethoxy-2-methylquinazolin-4-amine], for which the IC50 is 0.126 µM in experiment [1] and above 20 µM in experiment [2] (values given in μM).

As to `COc1cc2nc(C)nc(NC(C)c3ccc(-c4ccccc4CN4CC[C@H](F)C4)s3)c2cc1OC` (stereo partly drawn) [Example 211, N-{1-[5-(2-{[(3S)-3-fluoropyrrolidin-1-yl]methyl}phenyl)thiophen-2-yl]ethyl}-6,7-dimethoxy-2-methylquinazolin-4-amine], the IC50 in experiment [1] was 0.233 µM; in experiment [2] (values given in μM) it was above 20 µM.

Consider `COc1cc2nc(C)nc(NC(C)c3cccc4cccnc34)c2cc1OC` (single isomer, unassigned; enantiomer 1) [Example 230, 6,7-dimethoxy-2-methyl-N-[1-(quinolin-8-yl)ethyl]quinazolin-4-amine, Enantiomer 1], for which the results for the IC50 in experiment [1] and in experiment [2] (values given in μM) were 13.3 µM and above 20 µM, respectively.

On to `COc1cc2nc(C)nc(NC(C)c3ccc(C4=CCOCC4)s3)c2cc1OC` (centres unmarked) [Example 235, N-{1-[5-(3,6-dihydro-2H-pyran-4-yl)thiophen-2-yl]ethyl}-6,7-dimethoxy-2-methylquinazolin-4-amine], for which the values for the IC50 in experiment [1] and in experiment [2] (values given in μM) were 5.27 µM and above 20 µM, respectively.

For the compound `COc1cc2nc(C)nc(NC(C)c3ccc(-c4ccccc4)o3)c2cc1OC` (centres unmarked) [Example 213, 6,7-dimethoxy-2-methyl-N-[1-(5-phenylfuran-2-yl)ethyl]quinazolin-4-amine], the inhibition at 20 µM in experiment [1] was determined as 42%. The concentration for half-maximal inhibition (IC50) in experiment [2] (values given in μM) is above 20 µM.

Regarding `COc1cc2nc(C)nc(NC(C)c3cc(Br)cc4c3OCC4)c2cc1OC` (centres unmarked) [Example 214, N-[1-(5-bromo-2,3-dihydro-1-benzofuran-7-yl)ethyl]-6,7-dimethoxy-2-methylquinazolin-4-amine], the IC50 was 13.6 µM in experiment [1] and above 20 µM in experiment [2] (values given in μM).

One may read the IC50 as the concentration that gives 50% inhibition. The term inhibition denotes how much of the control response was suppressed.
